Results published in patent publication US4698327A, “Novel glycopeptide derivatives” (priority 1986, dated 1987).
Values after ≈ are worked out from the molar mass of the structure shown.

Legend:
[1] = system: Staphylococcus epidermidis EPI1; format: cell-based; details: agar dilution
[2] = system: Haemophilus influenzae C.L.; experiment: MIC, standard agar-dilution assay; format: cell-based
[3] = system: Staphylococcus aureus S13E; format: cell-based; details: agar dilution
[4] = system: Escherichia coli EC14; experiment: MIC, standard agar-dilution assay; format: cell-based
[5] = system: Klebsiella pneumoniae X68; experiment: MIC, standard agar-dilution assay; format: cell-based
[6] = system: Streptococcus pneumoniae Park 1; format: cell-based; details: agar dilution
[7] = system: Staphylococcus aureus X400; experiment: MIC, standard agar-dilution assay; format: cell-based
[8] = system: Klebsiella pneumoniae X26; experiment: MIC, standard agar-dilution assay; format: cell-based
[9] = system: Staphylococcus epidermidis 222; experiment: MIC, standard agar-dilution assay; format: cell-based
[10] = system: Streptococcus pyogenes C203; experiment: MIC, standard agar-dilution assay; format: cell-based
[11] = system: Escherichia coli N10; experiment: MIC, standard agar-dilution assay; format: cell-based
[12] = system: Staphylococcus aureus NRRL B313; details: agar dilution
[13] = system: Streptococcus sp. group D 2041; experiment: MIC, standard agar-dilution assay; format: cell-based
[14] = system: Haemophilus influenzae 76; experiment: MIC, standard agar-dilution assay; format: cell-based
[15] = system: Escherichia coli TEM; experiment: MIC, standard agar-dilution assay; format: cell-based
[16] = system: Klebsiella pneumoniae KAE; experiment: MIC, standard agar-dilution assay; format: cell-based
[17] = system: Staphylococcus aureus V41; experiment: MIC, standard agar-dilution assay; format: cell-based
[18] = system: Streptococcus faecium ATCC 9790; experiment: MIC, standard agar-dilution assay; format: cell-based

Compound	MIC [1]	MIC [2]	MIC [3]	MIC [4]	MIC [5]	MIC [6]	MIC [7]	MIC [8]	MIC [9]	MIC [10]	MIC [11]	MIC [12]	MIC [13]	MIC [14]	MIC [15]	MIC [16]	MIC [17]	MIC [18]
CCNC1(C)CC(OC2C(Oc3c4cc5cc3Oc3ccc(cc3Cl)C(O)C(NC(=O)C(CC(C)C)N(C)CC)C(=O)NC(CC(N)=O)C(=O)NC5C(=O)NC3C(=O)NC(C(=O)NC(C(=O)O)c5cc(O)cc(O)c5-c5cc3ccc5O)C(O)c3ccc(c(Cl)c3)O4)OC(CO)C(O)C2O)OC(C)C1O (stereo not drawn) [Compound 24, N^van, N^leu --diethylvancomycin]	2 mg/L (≈ 1.33 µM)	< 128 mg/L	1 mg/L (≈ 0.664 µM)	> 128 mg/L	> 128 mg/L	1 mg/L (≈ 0.664 µM)	2 mg/L (≈ 1.33 µM)	> 128 mg/L	2 mg/L (≈ 1.33 µM)	1 mg/L (≈ 0.664 µM)	> 128 mg/L	1 mg/L (≈ 0.664 µM)	4 mg/L (≈ 2.66 µM)	128 mg/L (≈ 85 µM)	> 128 mg/L	> 128 mg/L	1 mg/L (≈ 0.664 µM)	2 mg/L (≈ 1.33 µM)
CCCCCNC1(C)CC(OC2C(Oc3c4cc5cc3Oc3ccc(cc3Cl)C(O)C3NC(=O)C(NC(=O)C5NC(=O)C(CC(N)=O)NC(=O)C(NC(=O)C(CC(C)C)NC)C(O)c5ccc(c(Cl)c5)O4)c4ccc(O)c(c4)-c4c(O)cc(O)cc4C(C(=O)O)NC3=O)OC(CO)C(O)C2O)OC(C)C1O (stereo not drawn) [Compound 15, N^van --(n-pentyl)vancomycin]	2 mg/L (≈ 1.32 µM)	128 mg/L (≈ 84.2 µM)	1 mg/L (≈ 0.658 µM)	> 128 mg/L	> 128 mg/L	0.125 mg/L (≈ 0.0823 µM)	1 mg/L (≈ 0.658 µM)	> 128 mg/L	1 mg/L (≈ 0.658 µM)	0.5 mg/L (≈ 0.329 µM)	> 128 mg/L	0.5 mg/L (≈ 0.329 µM)	2 mg/L (≈ 1.32 µM)	128 mg/L (≈ 84.2 µM)	> 128 mg/L	> 128 mg/L	1 mg/L (≈ 0.658 µM)	1 mg/L (≈ 0.658 µM)
CCCNC1(C)CC(OC2C(Oc3c4cc5cc3Oc3ccc(cc3Cl)C(O)C(NC(=O)C(CC(C)C)N(C)CCC)C(=O)NC(CC(N)=O)C(=O)NC5C(=O)NC3C(=O)NC(C(=O)NC(C(=O)O)c5cc(O)cc(O)c5-c5cc3ccc5O)C(O)c3ccc(c(Cl)c3)O4)OC(CO)C(O)C2O)OC(C)C1O (stereo not drawn) [Compound 22, N^van, N^leu --di(n-propyl)vancomycin]	4 mg/L (≈ 2.61 µM)	> 128 mg/L	2 mg/L (≈ 1.3 µM)	> 128 mg/L	> 128 mg/L	1 mg/L (≈ 0.652 µM)	2 mg/L (≈ 1.3 µM)	> 128 mg/L	4 mg/L (≈ 2.61 µM)	2 mg/L (≈ 1.3 µM)	> 128 mg/L	2 mg/L (≈ 1.3 µM)	8 mg/L (≈ 5.22 µM)	128 mg/L (≈ 83.5 µM)	> 128 mg/L	> 128 mg/L	2 mg/L (≈ 1.3 µM)	2 mg/L (≈ 1.3 µM)
CCCCNC1(C)CC(OC2C(Oc3c4cc5cc3Oc3ccc(cc3Cl)C(O)C(NC(=O)C(CC(C)C)N(C)CCCC)C(=O)NC(CC(N)=O)C(=O)NC5C(=O)NC3C(=O)NC(C(=O)NC(C(=O)O)c5cc(O)cc(O)c5-c5cc3ccc5O)C(O)c3ccc(c(Cl)c3)O4)OC(CO)C(O)C2O)OC(C)C1O (stereo not drawn) [Compound 19, N^van, N^leu --di(n-butyl)vancomycin]	2 mg/L (≈ 1.28 µM)	> 128 mg/L	1 mg/L (≈ 0.64 µM)	> 128 mg/L	> 128 mg/L	0.5 mg/L (≈ 0.32 µM)	1 mg/L (≈ 0.64 µM)	> 128 mg/L	1 mg/L (≈ 0.64 µM)	0.5 mg/L (≈ 0.32 µM)	> 128 mg/L	0.5 mg/L (≈ 0.32 µM)	2 mg/L (≈ 1.28 µM)	128 mg/L (≈ 82 µM)	> 128 mg/L	> 128 mg/L	1 mg/L (≈ 0.64 µM)	1 mg/L (≈ 0.64 µM)
CCCCCCCNC1(C)CC(OC2C(Oc3c4cc5cc3Oc3ccc(cc3Cl)C(O)C3NC(=O)C(NC(=O)C5NC(=O)C(CC(N)=O)NC(=O)C(NC(=O)C(CC(C)C)NC)C(O)c5ccc(c(Cl)c5)O4)c4ccc(O)c(c4)-c4c(O)cc(O)cc4C(C(=O)O)NC3=O)OC(CO)C(O)C2O)OC(C)C1O (stereo not drawn) [Compound 10, N^van --(n-heptyl)vancomycin]	2 mg/L (≈ 1.29 µM)	128 mg/L (≈ 82.7 µM)	0.5 mg/L (≈ 0.323 µM)	> 128 mg/L	> 128 mg/L	0.125 mg/L (≈ 0.0808 µM)	0.5 mg/L (≈ 0.323 µM)	> 128 mg/L	1 mg/L (≈ 0.646 µM)	0.5 mg/L (≈ 0.323 µM)	> 128 mg/L	0.25 mg/L (≈ 0.162 µM)	1 mg/L (≈ 0.646 µM)	128 mg/L (≈ 82.7 µM)	> 128 mg/L	> 128 mg/L	0.5 mg/L (≈ 0.323 µM)	0.5 mg/L (≈ 0.323 µM)
CCCCCCCNC1(C)CC(OC2C(Oc3c4cc5cc3Oc3ccc(cc3Cl)C(O)C(NC(=O)C(CC(C)C)N(C)CCCCCCC)C(=O)NC(CC(N)=O)C(=O)NC5C(=O)NC3C(=O)NC(C(=O)NC(C(=O)O)c5cc(O)cc(O)c5-c5cc3ccc5O)C(O)c3ccc(c(Cl)c3)O4)OC(CO)C(O)C2O)OC(C)C1O (stereo not drawn) [Compound 12, N^van, N^leu --di(n-heptyl)vancomycin]	2 mg/L (≈ 1.22 µM)	> 128 mg/L	1 mg/L (≈ 0.608 µM)	> 128 mg/L	> 128 mg/L	0.5 mg/L (≈ 0.304 µM)	1 mg/L (≈ 0.608 µM)	> 128 mg/L	1 mg/L (≈ 0.608 µM)	0.5 mg/L (≈ 0.304 µM)	> 128 mg/L	0.5 mg/L (≈ 0.304 µM)	1 mg/L (≈ 0.608 µM)	128 mg/L (≈ 77.8 µM)	> 128 mg/L	> 128 mg/L	1 mg/L (≈ 0.608 µM)	1 mg/L (≈ 0.608 µM)
CCCCCCCCCCNC1(C)CC(OC2C(Oc3c4cc5cc3Oc3ccc(cc3Cl)C(O)C(NC(=O)C(CC(C)C)N(C)CCCCCCCCCC)C(=O)NC(CC(N)=O)C(=O)NC5C(=O)NC3C(=O)NC(C(=O)NC(C(=O)O)c5cc(O)cc(O)c5-c5cc3ccc5O)C(O)c3ccc(c(Cl)c3)O4)OC(CO)C(O)C2O)OC(C)C1O (stereo not drawn) [Compound 4, N^van, N^leu --di(n-decyl)vancomycin]	16 mg/L (≈ 9.25 µM)	> 128 mg/L	4 mg/L (≈ 2.31 µM)	> 128 mg/L	> 128 mg/L	4 mg/L (≈ 2.31 µM)	4 mg/L (≈ 2.31 µM)	> 128 mg/L	4 mg/L (≈ 2.31 µM)	2 mg/L (≈ 1.16 µM)	> 128 mg/L	2 mg/L (≈ 1.16 µM)	4 mg/L (≈ 2.31 µM)	> 128 mg/L	> 128 mg/L	> 128 mg/L	4 mg/L (≈ 2.31 µM)	4 mg/L (≈ 2.31 µM)
CCCCCCNC1(C)CC(OC2C(Oc3c4cc5cc3Oc3ccc(cc3Cl)C(O)C3NC(=O)C(NC(=O)C5NC(=O)C(CC(N)=O)NC(=O)C(NC(=O)C(CC(C)C)NC)C(O)c5ccc(c(Cl)c5)O4)c4ccc(O)c(c4)-c4c(O)cc(O)cc4C(C(=O)O)NC3=O)OC(CO)C(O)C2O)OC(C)C1O (stereo not drawn) [Compound 13, N^van --(n-hexyl)vancomycin]	2 mg/L (≈ 1.3 µM)	128 mg/L (≈ 83.5 µM)	0.5 mg/L (≈ 0.326 µM)	> 128 mg/L	> 128 mg/L	0.125 mg/L (≈ 0.0815 µM)	1 mg/L (≈ 0.652 µM)	> 128 mg/L	1 mg/L (≈ 0.652 µM)	0.5 mg/L (≈ 0.326 µM)	> 128 mg/L	0.5 mg/L (≈ 0.326 µM)	1 mg/L (≈ 0.652 µM)	128 mg/L (≈ 83.5 µM)	> 128 mg/L	> 128 mg/L	1 mg/L (≈ 0.652 µM)	1 mg/L (≈ 0.652 µM)
CCCCCCCCCNC1(C)CC(OC2C(Oc3c4cc5cc3Oc3ccc(cc3Cl)C(O)C(NC(=O)C(CC(C)C)N(C)CCCCCCCCC)C(=O)NC(CC(N)=O)C(=O)NC5C(=O)NC3C(=O)NC(C(=O)NC(C(=O)O)c5cc(O)cc(O)c5-c5cc3ccc5O)C(O)c3ccc(c(Cl)c3)O4)OC(CO)C(O)C2O)OC(C)C1O (stereo not drawn) [Compound 6, N^van, N^leu --di(n-nonyl)vancomycin]	4 mg/L (≈ 2.35 µM)	> 128 mg/L	2 mg/L (≈ 1.18 µM)	> 128 mg/L	> 128 mg/L	2 mg/L (≈ 1.18 µM)	1 mg/L (≈ 0.588 µM)	> 128 mg/L	2 mg/L (≈ 1.18 µM)	1 mg/L (≈ 0.588 µM)	> 128 mg/L	1 mg/L (≈ 0.588 µM)	2 mg/L (≈ 1.18 µM)	> 128 mg/L	> 128 mg/L	> 128 mg/L	1 mg/L (≈ 0.588 µM)	1 mg/L (≈ 0.588 µM)
